Assay results from ChEMBL document CHEMBL3431459, “Roche carnitine palmitoyltransferase modulator screening data (supplementary data associated with the publication CHEMBL2216752)”.
pIC50: −log10 of the molar value. Values after ≈ are worked out from the molar mass of the structure shown.

Legend:
[1] = SUPPLEMENTARY: PAMPA permeability assay; type: physicochemical; details: read-out: Permeability
[2] = target: T1, Carnitine O-palmitoyltransferase 1, muscle isoform (Homo sapiens, UniProt Q92523); test: SUPPLEMENTARY: Inhibition of Carnitine palmitoyltransferase 1, muscle isoform; design: species or system Muscle tissue
T1 sequence (Q92523 whole entry): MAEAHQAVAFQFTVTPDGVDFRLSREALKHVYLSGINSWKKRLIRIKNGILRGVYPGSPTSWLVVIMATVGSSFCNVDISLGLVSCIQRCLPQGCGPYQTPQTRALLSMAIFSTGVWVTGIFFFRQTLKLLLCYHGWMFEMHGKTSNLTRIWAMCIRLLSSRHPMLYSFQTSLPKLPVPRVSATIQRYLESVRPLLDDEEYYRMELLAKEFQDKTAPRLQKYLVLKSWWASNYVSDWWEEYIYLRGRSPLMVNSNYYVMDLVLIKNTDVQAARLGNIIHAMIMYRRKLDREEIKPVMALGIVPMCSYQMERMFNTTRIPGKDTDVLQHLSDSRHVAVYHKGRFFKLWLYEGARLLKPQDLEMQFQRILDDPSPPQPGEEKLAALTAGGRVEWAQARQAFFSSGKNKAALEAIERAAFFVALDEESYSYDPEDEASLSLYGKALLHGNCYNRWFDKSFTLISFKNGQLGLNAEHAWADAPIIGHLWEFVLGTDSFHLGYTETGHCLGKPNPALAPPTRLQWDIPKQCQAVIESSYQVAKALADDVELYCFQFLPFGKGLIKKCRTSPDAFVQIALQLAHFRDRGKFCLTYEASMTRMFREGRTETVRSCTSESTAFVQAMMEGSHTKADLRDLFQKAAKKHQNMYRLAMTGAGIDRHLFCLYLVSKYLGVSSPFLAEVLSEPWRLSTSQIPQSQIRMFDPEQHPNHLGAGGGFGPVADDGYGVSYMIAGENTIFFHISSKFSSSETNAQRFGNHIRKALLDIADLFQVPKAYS

[3] = SUPPLEMENTARY: Lipophilicity (log D) Determination by high-throughput shake-flask; type: physicochemical; details: octanol/water
[4] = target: T2, Carnitine O-palmitoyltransferase 2, mitochondrial (Rattus norvegicus, UniProt P18886); test: (§1) SUPPLEMENTARY: Inhibition of Carnitine palmitoyltransferase 2
T2 sequence (P18886 whole entry): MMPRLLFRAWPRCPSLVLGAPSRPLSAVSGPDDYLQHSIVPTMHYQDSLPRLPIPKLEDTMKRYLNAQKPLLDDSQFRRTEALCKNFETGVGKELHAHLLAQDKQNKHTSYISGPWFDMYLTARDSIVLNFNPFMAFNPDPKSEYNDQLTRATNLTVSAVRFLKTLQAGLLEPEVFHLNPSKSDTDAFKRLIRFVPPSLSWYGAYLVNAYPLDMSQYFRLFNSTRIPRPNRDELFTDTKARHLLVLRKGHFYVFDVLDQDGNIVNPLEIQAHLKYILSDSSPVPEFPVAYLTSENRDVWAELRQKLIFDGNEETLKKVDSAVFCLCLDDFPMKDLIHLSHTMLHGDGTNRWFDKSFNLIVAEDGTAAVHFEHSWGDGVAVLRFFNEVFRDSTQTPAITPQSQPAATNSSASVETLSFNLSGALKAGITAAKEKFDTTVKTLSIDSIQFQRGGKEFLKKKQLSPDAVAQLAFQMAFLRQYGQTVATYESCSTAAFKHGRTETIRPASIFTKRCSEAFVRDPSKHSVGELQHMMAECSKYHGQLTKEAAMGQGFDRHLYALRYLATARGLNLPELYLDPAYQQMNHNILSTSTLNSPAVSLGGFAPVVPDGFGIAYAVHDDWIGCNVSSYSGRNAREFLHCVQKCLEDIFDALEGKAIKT

[5] = target: T3, Carnitine O-palmitoyltransferase 2, mitochondrial (Homo sapiens, UniProt P23786); test: as §1
T3 sequence (P23786 whole entry): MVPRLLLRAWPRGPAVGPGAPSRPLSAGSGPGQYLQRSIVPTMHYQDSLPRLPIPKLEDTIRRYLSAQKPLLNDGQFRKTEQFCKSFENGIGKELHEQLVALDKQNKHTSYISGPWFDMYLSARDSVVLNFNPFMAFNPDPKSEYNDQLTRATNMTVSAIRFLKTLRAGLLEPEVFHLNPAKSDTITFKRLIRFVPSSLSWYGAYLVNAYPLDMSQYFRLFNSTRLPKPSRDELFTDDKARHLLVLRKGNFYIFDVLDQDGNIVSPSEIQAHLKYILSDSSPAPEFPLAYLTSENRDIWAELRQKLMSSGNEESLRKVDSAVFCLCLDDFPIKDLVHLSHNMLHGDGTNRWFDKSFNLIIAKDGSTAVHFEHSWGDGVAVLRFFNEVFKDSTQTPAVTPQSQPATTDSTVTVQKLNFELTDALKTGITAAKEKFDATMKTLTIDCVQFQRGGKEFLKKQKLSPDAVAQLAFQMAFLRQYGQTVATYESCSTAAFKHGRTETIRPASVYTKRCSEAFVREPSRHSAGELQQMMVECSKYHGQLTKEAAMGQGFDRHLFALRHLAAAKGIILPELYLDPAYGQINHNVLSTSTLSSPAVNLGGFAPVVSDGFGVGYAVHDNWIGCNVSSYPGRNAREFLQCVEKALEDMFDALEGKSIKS

[6] = SUPPLEMENTARY: Lyophilisation Solubility Assay (LYSA); type: physicochemical; details: read-out: Kinetic_solubility
[7] = target: T4, Carnitine O-palmitoyltransferase 1, liver isoform (Rattus norvegicus, UniProt P32198); test: (§2) SUPPLEMENTARY: Inhibition of Carnitine palmitoyltransferase 1, liver isoform
T4 sequence (P32198 whole entry): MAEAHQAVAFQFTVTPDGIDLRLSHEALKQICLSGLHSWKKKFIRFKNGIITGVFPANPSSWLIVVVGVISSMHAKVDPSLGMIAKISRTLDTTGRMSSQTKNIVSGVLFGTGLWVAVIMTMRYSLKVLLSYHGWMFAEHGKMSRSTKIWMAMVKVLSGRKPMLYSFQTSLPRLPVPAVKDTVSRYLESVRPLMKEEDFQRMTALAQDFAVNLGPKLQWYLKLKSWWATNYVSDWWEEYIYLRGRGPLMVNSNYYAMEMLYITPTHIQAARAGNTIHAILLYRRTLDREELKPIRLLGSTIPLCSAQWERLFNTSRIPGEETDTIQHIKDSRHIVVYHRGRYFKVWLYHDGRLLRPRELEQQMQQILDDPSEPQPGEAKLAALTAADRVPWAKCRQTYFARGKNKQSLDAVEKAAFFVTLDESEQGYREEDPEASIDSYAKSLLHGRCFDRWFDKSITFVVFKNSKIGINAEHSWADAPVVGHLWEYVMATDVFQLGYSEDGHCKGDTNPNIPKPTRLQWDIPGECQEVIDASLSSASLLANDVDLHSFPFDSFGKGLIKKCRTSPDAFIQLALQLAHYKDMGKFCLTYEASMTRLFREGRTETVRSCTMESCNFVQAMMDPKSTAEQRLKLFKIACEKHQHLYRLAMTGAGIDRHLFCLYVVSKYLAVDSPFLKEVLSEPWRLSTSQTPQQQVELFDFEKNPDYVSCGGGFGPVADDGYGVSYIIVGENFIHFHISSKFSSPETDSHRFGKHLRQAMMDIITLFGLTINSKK

[8] = target: T5, Carnitine O-palmitoyltransferase 1, liver isoform (Homo sapiens, UniProt P50416); test: as §2
T5 sequence (P50416 whole entry): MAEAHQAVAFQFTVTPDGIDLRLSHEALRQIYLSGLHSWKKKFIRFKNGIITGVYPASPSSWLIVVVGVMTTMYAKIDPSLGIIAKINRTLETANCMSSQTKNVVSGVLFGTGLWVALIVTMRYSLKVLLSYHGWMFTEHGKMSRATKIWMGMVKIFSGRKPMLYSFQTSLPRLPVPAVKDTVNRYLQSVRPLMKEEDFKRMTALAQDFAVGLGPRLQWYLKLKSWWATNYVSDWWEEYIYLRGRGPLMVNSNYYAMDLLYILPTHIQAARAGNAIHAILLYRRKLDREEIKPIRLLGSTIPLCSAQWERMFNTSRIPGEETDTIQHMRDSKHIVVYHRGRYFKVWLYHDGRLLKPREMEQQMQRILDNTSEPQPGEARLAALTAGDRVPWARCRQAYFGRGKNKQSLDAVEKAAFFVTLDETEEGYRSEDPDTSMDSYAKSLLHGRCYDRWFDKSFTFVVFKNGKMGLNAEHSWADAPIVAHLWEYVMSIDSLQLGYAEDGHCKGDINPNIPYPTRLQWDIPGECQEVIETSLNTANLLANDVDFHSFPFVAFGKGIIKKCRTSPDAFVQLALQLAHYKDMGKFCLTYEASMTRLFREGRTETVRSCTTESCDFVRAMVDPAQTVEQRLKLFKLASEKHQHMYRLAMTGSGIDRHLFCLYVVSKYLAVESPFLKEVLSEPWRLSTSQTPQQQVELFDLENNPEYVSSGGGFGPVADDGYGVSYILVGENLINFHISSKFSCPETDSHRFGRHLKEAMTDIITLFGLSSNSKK

Papp [1] | pIC50 [2] | logD [3] | pIC50 [4] | pIC50 [5] | solubility kinetic [6] | pIC50 [7] | pIC50 [8] | SMILES
15.7 nm/s | < 4.00 | 0.56 | 5.97 | 5.52 | > 0.598 mg/mL | 6.60 | 7.36 | COc1ccc(Cl)cc1S(=O)(=O)Nc1cc(C(=O)Nc2ccc(C(=O)O)cc2)cc(OC)c1OC
9.62 nm/s | < 4.00 | > 3 | < 4.00 | < 4.00 | 0.011 mg/mL (≈ 27.6 µM) | 6.64 | 6.72 | O=C(COc1ccccc1)N1CCCC[C@@H]1c1nc(-c2ccc(Cl)cc2)no1
25.5 nm/s | 4.14 | 2.57 | 4.34 | 4.78 | 0.042 mg/mL (≈ 103 µM) | 6.81 | 7.39 | NC(=O)c1cccc(-c2noc([C@H]3CCCCN3C(=O)COc3ccccc3)n2)c1
22.7 nm/s | < 4.00 | 2.29 | 4.31 | 4.87 | 0.065 mg/mL (≈ 134 µM) | 6.39 | 7.22 | O=C(COc1ccccc1)N1CCCC[C@@H]1c1nc(-c2ccc(S(=O)(=O)NCCO)cc2)no1
58.9 nm/s | < 4.00 | 1.75 | 4.05 | < 4.00 | > 0.523 mg/mL | 6.05 | 7.09 | O=C(c1cc(-c2noc([C@H]3CCCCN3C(=O)COc3ccccc3)n2)ccn1)N1CCOCC1
2.61 nm/s | < 4.00 | 1.98 | 4.40 | 4.38 | 0.008 mg/mL (≈ 18.6 µM) | 6.62 | 6.79 | O=C(COc1ccccc1)N1CCCC[C@@H]1c1nc(-c2ccc(-c3cnc[nH]3)cc2)no1
53.7 nm/s | < 4.00 | 2.42 | < 4.00 | < 4.00 | 0.071 mg/mL (≈ 188 µM) | 6.09 | 6.96 | Nc1cccc(-c2n[nH]c([C@H]3CCCCN3C(=O)COc3ccccc3)n2)c1
28.8 nm/s | < 4.00 | 2.61 | < 4.00 | 4.01 | 0.136 mg/mL (≈ 324 µM) | 6.47 | 7.27 | CC(=O)Nc1cccc(-c2n[nH]c([C@H]3CCCCN3C(=O)COc3ccccc3)n2)c1
25.6 nm/s | < 4.00 | 2.27 | 4.08 | 4.62 | 0.103 mg/mL (≈ 226 µM) | 6.76 | 6.84 | CS(=O)(=O)Nc1cccc(-c2n[nH]c([C@H]3CCCCN3C(=O)COc3ccccc3)n2)c1
22.5 nm/s | < 4.00 | 2.16 | < 4.00 | < 4.00 | 0.161 mg/mL (≈ 397 µM) | 6.25 | 7.03 | NC(=O)c1cccc(-c2n[nH]c([C@H]3CCCCN3C(=O)COc3ccccc3)n2)c1
31.5 nm/s | 6.20 | 0.92 | < 4.00 | < 4.00 | 0.07 mg/mL (≈ 154 µM) | 6.29 | 6.81 | O=C(O)c1ccc(C(=O)Nc2nn(Cc3ccc(OC(F)F)cc3)c3ccc(F)cc23)cc1
